Measurements: patent US8754073B2, “Substituted piperazino-dihydrothienopyrimidines” (Boehringer Ingelheim International GmbH, priority 2007, dated 2014)
Where a name gives a salt, the structure may show the parent alone.

molecular target: PDE4B (Homo sapiens, UniProt Q07343); assay: Scintillation Proximity Assay (SPA) of PDE4B enzyme activity ([H3]-cAMP cleavage); assay type: biochemical; details: test substance 1 μM; one-hour incubation of [H3]-cAMP with PDE4B enzyme at 30° C.
In short: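 SPA read-out: [H3]-cAMP incubated with PDE4B in assay buffer for 1 h at 30 °C, with and without test compound at 1 μM. Reaction stopped by adding yttrium silicate beads that bind the [H3]-AMP product; after 45 min settling, scintillation counted. Value is % inhibition at 1 μM.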

PDE4B, sequence (Q07343 whole entry, species assumed): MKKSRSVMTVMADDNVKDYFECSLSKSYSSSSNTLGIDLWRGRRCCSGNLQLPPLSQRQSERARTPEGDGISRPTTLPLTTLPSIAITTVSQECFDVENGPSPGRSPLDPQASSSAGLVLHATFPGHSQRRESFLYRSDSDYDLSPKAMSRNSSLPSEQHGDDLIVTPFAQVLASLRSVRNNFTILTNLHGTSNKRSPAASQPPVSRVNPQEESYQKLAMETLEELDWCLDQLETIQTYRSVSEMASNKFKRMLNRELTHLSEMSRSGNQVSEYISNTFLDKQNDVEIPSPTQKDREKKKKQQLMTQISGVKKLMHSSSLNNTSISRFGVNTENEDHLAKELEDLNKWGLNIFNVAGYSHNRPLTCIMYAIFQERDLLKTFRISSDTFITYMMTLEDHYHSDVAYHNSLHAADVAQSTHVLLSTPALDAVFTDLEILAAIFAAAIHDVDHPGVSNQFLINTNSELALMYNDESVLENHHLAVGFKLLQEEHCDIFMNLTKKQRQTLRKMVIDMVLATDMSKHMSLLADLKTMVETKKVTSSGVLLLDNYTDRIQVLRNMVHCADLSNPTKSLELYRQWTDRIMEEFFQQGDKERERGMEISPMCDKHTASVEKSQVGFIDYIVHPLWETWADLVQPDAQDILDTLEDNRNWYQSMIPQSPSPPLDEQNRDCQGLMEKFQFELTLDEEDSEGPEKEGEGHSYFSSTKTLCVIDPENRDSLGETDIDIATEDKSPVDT

inhibition at 1 µM [%] | SMILES
94 | N#Cc1cccc(C2CCN(c3nc4c(c(NC5CCOCC5)n3)[S+]([O-])CC4)CC2)c1 (stereo not drawn) [Example 123]
95 | CN1C[C@@H](Nc2nc(N3CCC4(CC3)c3ccccc3NC(=O)N4C)nc3c2[S+]([O-])CC3)CCC1=O (stereo partly drawn) [Example 43, (S)-3′-Methyl-1-(4-(1-Methyl-6-Oxopiperidin-3-Ylamino)-5-Oxo-6,7-Dihydro-5H-5λ^4-Thieno[3,2-d]Pyrimidin-2-YL)-3′-Methyl-1′H-Spiro[Piperidin-4,4′-Quinazolin]-2′(3′H)-One]
94 | [O-][S+]1CCc2nc(N3CCC(c4cccc(F)c4)CC3)nc(NC3CCOCC3)c21 (stereo not drawn) [Example 86]
94 | [O-][S+]1CCc2nc(N3CCC(c4ccc(C(F)(F)F)cc4)CC3)nc(NC3CCOCC3)c21 (stereo not drawn) [Example 96, {5-Oxo-2-[4-(4-Trifluoromethylphenyl)-Piperidin-1-Yl]-6,7-Dihydro-5H-5λ^4-Thieno[3,2-d]Pyrimidin-4-Yl}-(Tetrahydropyran-4-Yl)-Amine]
95 | [O-][S+]1CCc2nc(N3CCC(c4cccc(O)c4)CC3)nc(NC3CCOCC3)c21 (stereo not drawn) [Example 61]
94 | CN1C(=O)Nc2ccccc2C12CCN(c1nc3c(c(Nc4cccc(F)c4)n1)[S+]([O-])CC3)CC2 (stereo not drawn) [Example 73, 1-(4-(3-fluorophenylamino)-5-oxo-6,7-dihydro-5H-5λ^4-thieno[3,2-d]pyrimidin-2-yl)-3′-methyl-1′H-spiro[piperidin-4,4′-quinazolin]-2′(3′H)-one]
95 | CN1C[C@@H](Nc2nc(N3CCC4(CC3)OC(=O)Nc3ccccc34)nc3c2[S+]([O-])CC3)CCC1=O (stereo partly drawn) [Example 50]
94 | COC(=O)c1cccc(C2CCN(c3nc4c(c(N[C@@H](CO)C(C)C)n3)[S+]([O-])CC4)CC2)c1 (stereo partly drawn) [Example 151]
96 | Cc1noc(C2CCN(c3nc4c(c(Nc5cccc(F)c5)n3)[S+]([O-])CC4)CC2)n1 (stereo not drawn) [Example 83]
96 | CN1C[C@@H](Nc2nc(N3CCC(C#N)(c4ccccc4)CC3)nc3c2[S+]([O-])CC3)CCC1=O (stereo partly drawn) [Example 55, 1-[4-((S)-1-Methyl-6-Oxopiperidin-3-Ylamino)-5-Oxo-6,7-Dihydro-5H-5λ^4-Thieno[3,2-d]Pyrimidine-2-Yl]-4-Phenylpiperidine-4-Carbonitrile]
96 | [O-][S+]1CCc2nc(N3CCC(c4cc(-c5ccco5)n[nH]4)CC3)nc(NC3CCOCC3)c21 (stereo not drawn) [Example 130]
83 | O=C1Nc2ccccc2C2(CCN(c3nc4c(c(Nc5cccc(F)c5)n3)[S+]([O-])CC4)CC2)N1 (stereo not drawn) [Example 81]
71 | CC(C)[C@H](CO)Nc1nc(N2CCC(c3c[nH]cn3)CC2)nc2c1[S+]([O-])CC2 (stereo partly drawn) [Example 13]
95 | [O-][S+]1CCc2nc(N3CCC(c4cccc(Cl)c4)CC3)nc(Nc3cccc(F)c3)c21 (stereo not drawn) [Example 84]
94 | CC(C)[C@H](CO)Nc1nc(N2CCC(c3cccc(Cl)c3)CC2)nc2c1[S+]([O-])CC2 (stereo partly drawn) [Example 24]
97 | [O-][S+]1CCc2nc(N3CCC(c4nc5ccccc5o4)CC3)nc(NC3(CO)CC3)c21 (stereo not drawn) [Example 98, {1-[2-(4-Benzoxazol-2-Yl-Piperidin-1-Yl)-5-Oxo-6,7-Dihydro-5H-5λ^4-Thieno[3,2-d]Pyrimidin-4-Ylamino]-Cyclopropyl}-Methanol]
96 | CN1C[C@@H](Nc2nc(N3CCC(c4ccc(C#N)cc4)CC3)nc3c2[S+]([O-])CC3)CCC1=O (stereo partly drawn) [Example 49]
96 | [O-][S+]1CCc2nc(N3CCC(c4ccc5ccccc5c4)CC3)nc(NC3(CO)CC3)c21 (stereo not drawn) [Example 111]
94 | CC(C)[C@H](CO)Nc1nc(N2CCC(c3nnc(-c4ccc(F)cc4)o3)CC2)nc2c1[S+]([O-])CC2 (stereo partly drawn) [Example 159]
96 | [O-][S+]1CCc2nc(N3CCC(O)(c4cc(F)cc(F)c4)CC3)nc(Nc3cccc(F)c3)c21 (stereo not drawn) [Example 77]
94 | CC(C)[C@H](CO)Nc1nc(N2CCC(c3cc(-c4ccco4)n[nH]3)CC2)nc2c1[S+]([O-])CC2 (stereo partly drawn) [Example 161, (R)-2-{2-[4-(5-Furan-2-Yl-2H-Pyrazol-3-Yl)-Piperidin-1-Yl]-5-Oxo-6,7-Dihydro-5H-5λ^4-Thieno[3,2-d]Pyrimidin-4-Ylamino}-3-Methylbutan-1-Ol Trifluoroacetate]
90 | CC(C)[C@H](CO)Nc1nc(N2CCC(C#N)(c3ccccc3)CC2)nc2c1[S+]([O-])CC2 (stereo partly drawn) [Example 25]
83 | CC(C)[C@H](CO)Nc1nc(N2CCC(c3ccncc3)CC2)nc2c1[S+]([O-])CC2 (stereo partly drawn) [Example 19, (R)-3-Methyl-2-[5-Oxo-2-(3.4.5.6-Tetrahydro-2H-[4,4′]Bipyridinyl-1-Yl)-6,7-Dihydro-5H-5λ^4-Thieno[3,2-d]Pyrimidin-4-Ylamino]-Butan-1-Ol]
96 | [O-][S+]1CCc2nc(N3CCC(c4cc(-c5ccco5)n[nH]4)CC3)nc(Nc3cccc(F)c3)c21 (stereo not drawn) [Example 145, (3-Fluorophenyl)-{2-[4-(5-Furan-2-Yl-2H-Pyrazol-3-Yl)-Piperidin-1-Yl]-5-Oxo-6,7-Dihydro-5H-5λ^4-Thieno[3,2-d]Pyrimidin-4-Yl}-Amine Trifluoracetat]
83 | CN1C[C@@H](Nc2nc(N3CCC4(CC3)NC(=O)Nc3ccccc34)nc3c2[S+]([O-])CC3)CCC1=O (stereo partly drawn) [Example 51]

same assay, conditions: test substance 1 μM; one-hour incubation with [H3]-cAMP at 30° C.

SMILES | inhibition at 1 µM [%]
[O-][S+]1CCc2nc(N3CCC(Oc4ccc(C5=NCCO5)cc4)CC3)nc(NC3CCOCC3)c21 (stereo not drawn) [Example 180, (2-{4-[4-(4,5-dihydroxazol-2-yl)-phenoxy]-piperidin-1-yl}-5-oxo-6,7-dihydro-5H-5λ^4-thieno[3,2-d]pyrimidin-4-yl)-(tetrahydropyran-4-yl)-amine] | 93
COC(=O)c1ccc(OC2CCN(c3nc4c(c(NC5CCOCC5)n3)[S+]([O-])CC4)CC2)cc1 (stereo not drawn) [Example 176] | 93
[O-][S+]1CCc2nc(N3CCC(c4ccccc4)CC3)nc(NC3(CO)CC3)c21 (stereo not drawn) [Example 164] | 92
Cn1cc(C2CCN(c3nc4c(c(NC5CCOCC5)n3)[S+]([O-])CC4)CC2)c2ccccc21 (stereo not drawn) [Example 193] | 96
[O-][S+]1CCc2nc(N3CCC(OCc4ccccc4)CC3)nc(NC3CCOCC3)c21 (stereo not drawn) [Example 172] | 91
[O-][S+]1CCc2nc(N3CCC(c4nc5ncncc5[nH]4)CC3)nc(NC3CCOCC3)c21 (stereo not drawn) [Example 208] | 82
CN1C[C@@H](Nc2nc(N3CCC(c4cc[n+]([O-])cc4)CC3)nc3c2[S+]([O-])CC3)CCC1=O (stereo partly drawn) [Example 196] | 94
[O-][S+]1CCc2nc(N3CCC(Oc4ccc5c(c4)OCO5)CC3)nc(NC3CCOCC3)c21 (stereo not drawn) [Example 174] | 92
COC(=O)c1cccc(OC2CCN(c3nc4c(c(NC5CCOCC5)n3)[S+]([O-])CC4)CC2)c1 (stereo not drawn) [Example 177] | 93
[O-][S+]1CCc2nc(N3CCC(c4nc5ccncc5[nH]4)CC3)nc(NC3CCOCC3)c21 (stereo not drawn) [Example 213] | 88

More lines, now with the values ahead:

inhibition at 1 µM [%] | SMILES
91 | CN(C(=O)c1cccc(C2CCN(c3nc4c(c(NC5CCOCC5)n3)[S+]([O-])CC4)CC2)c1)C1CCOCC1 (stereo not drawn) [Example 256]
93 | [O-][S+]1CCc2nc(N3CCC(c4n[nH]c5ccccc45)CC3)nc(NC3(CO)CC3)c21 (stereo not drawn) [Example 220]
92 | Cc1nn(C)cc1CNC(=O)c1cccc(C2CCN(c3nc4c(c(NC5CCOCC5)n3)[S+]([O-])CC4)CC2)c1 (stereo not drawn) [Example 259]
95 | Cc1oc(C2CCN(c3nc4c(c(N[C@H]5CCC(=O)N(C)C5)n3)[S+]([O-])CC4)CC2)nc1-c1ccccc1 (stereo partly drawn) [Example 275, 1-methyl-5-{2-[4-(5-methyl-4-phenyloxazol-2-yl)-piperidin-1-yl]-5-oxo-6,7-dihydro-5H-5λ^4-thieno[3,2-d]pyrimidin-4-ylamino}-piperidin-2-one]
86 | [O-][S+]1CCc2nc(N3CCC(O)(c4ccc(Cl)cc4)CC3)nc(Nc3cccc(F)c3)c21 (stereo not drawn) [Example 290]
89 | COCC1(c2ccc(Cl)cc2)CCN(c2nc3c(c(N[C@@H](CO)C(C)C)n2)[S+]([O-])CC3)CC1 (stereo partly drawn) [Example 304]
94 | CN1CCC(N(C)C(=O)c2ccc(C3CCN(c4nc5c(c(NC6CCOCC6)n4)[S+]([O-])CC5)CC3)cc2)CC1 (stereo not drawn) [Example 228]
92 | CN(CC1(c2ccccc2)CCN(c2nc3c(c(NC4(CO)CC4)n2)[S+]([O-])CC3)CC1)S(C)(=O)=O (stereo not drawn) [Example 330]
95 | CN1C[C@@H](Nc2nc(N3CCC(c4nc(-c5ccccc5)c(-c5ccccc5)o4)CC3)nc3c2[S+]([O-])CC3)CCC1=O (stereo partly drawn) [Example 278, 5-{2-[4-(4,5-diphenyloxazol-2-yl)-piperidin-1-yl]-5-oxo-6,7-dihydro-5H-5λ^4-thieno[3,2-d]pyrimidin-4-ylamino}-1-methylpiperidin-2-one]
88 | CN1C[C@@H](Nc2nc(N3CCC(C#N)(c4ccc(F)cc4)CC3)nc3c2[S+]([O-])CC3)CCC1=O (stereo partly drawn) [Example 294]
83 | CS(=O)(=O)NCC1(c2ccccc2)CCN(c2nc3c(c(Nc4cccc(F)c4)n2)[S+]([O-])CC3)CC1 (stereo not drawn) [Example 327]
87 | CS(=O)(=O)NCC1(c2ccccc2)CCN(c2nc3c(c(NC4CCOCC4)n2)[S+]([O-])CC3)CC1 (stereo not drawn) [Example 325]
95 | CCN1CCc2ccc(OC3CCN(c4nc5c(c(NC6CCOCC6)n4)[S+]([O-])CC5)CC3)cc2CC1 (stereo not drawn) [Example 234]
89 | O=C(c1ccc(C2CCN(c3nc4c(c(NC5CCOCC5)n3)[S+]([O-])CC4)CC2)cc1)N(C1CCOCC1)C1CC1 (stereo not drawn) [Example 225]
92 | [O-][S+]1CCc2nc(N3CCC(Oc4ccc(Cl)cc4)CC3)nc(NC3CCOCC3)c21 (stereo not drawn) [Example 271]
95 | [O-][S+]1CCc2nc(N3CCC(c4nc(-c5ccccc5)c(-c5ccccc5)o4)CC3)nc(NC3CCOCC3)c21 (stereo not drawn) [Example 279]
